From ChEMBL document CHEMBL6074686 (Eur J Med Chem, 2025)
Calls of active or inactive are those of the source. The rule behind the calls is not given here.

Columns and labels:
[1] = system: MCF7; assay: Inhibition of cell migration in human MCF7 cells assessed as ratio of migrated cells at 12.5 nM incubated for 24 hrs by crystal violet staining based inverted microscopic analysis (reference value: 100%); assay type: functional; set-up: scale not given: the % may be the effect or the level left
[2] = system: A549; assay: Induction of cell cycle arrest in human A549 cells assessed as downregulation of Cdc-25c expression incubated for 24 hrs by Western blotting analysis; assay type: functional, cell-based; conditions: dose 25-100 nM
[3] = system: MCF7; assay: Inhibition of cell migration in human MCF7 cells assessed as ratio of migrated cells at 6.25 nM incubated for 24 hrs by crystal violet staining based inverted microscopic analysis (reference value: 100%); assay type: functional; set-up: scale not given: the % may be the effect or the level left
[4] = system: SK-OV-3; assay: Induction of cell cycle arrest in human SK-OV-3 cells assessed as increase in G2/M phase cells at 10 nM incubated for 24 hrs PI staining based flow cytometric analysis (reference value: 24.6 +/- 2.0%); assay type: functional
[5] = system: MCF7; assay: Inhibition of cell migration in human MCF7 cells assessed as wound closure at 1.25 nM incubated for 24 hrs by wound healing assay (reference value: 44.5 +/- 8.8%); assay type: functional; set-up: scale not given: the % may be the effect or the level left
[6] = system: MCF7; assay: Induction of apoptosis in human MCF7 cells assessed as downregulation of Bax expression at 25 to 50 nM incubated for 24 hrs by Western blotting analysis; assay type: functional, cell-based; conditions: dose 25-50 nM
[7] = system: MCF7; assay: Inhibition of cell migration in human MCF7 cells assessed as wound closure ratio at 20 nM incubated for 24 hrs by wound healing assay (reference value: 100%); assay type: functional; set-up: scale not given: the % may be the effect or the level left
[8] = system: SK-OV-3; assay: Inhibition of colony formation in human SK-OV-3 cells incubated for 12 days by crystal violet staining based assay; assay type: functional, cell-based; conditions: dose 1.25-20 nM, time 12.0 day
[9] = system: MDA-MB-231; assay: Antitumor activity against human MDA-MB-231 cells assessed as reduction in cell viability incubated for 72 hrs by CCK8 assay; conditions: MDA-MB-231, 72 h
[10] = system: SK-OV-3; assay: Inhibition of cell migration in human SK-OV-3 cells assessed as wound closure ratio at 25 nM incubated for 24 hrs by wound healing assay (reference value: 100%); assay type: functional; set-up: scale not given: the % may be the effect or the level left
[11] = system: MCF7; assay: Inhibition of cell migration in human MCF7 cells assessed as ratio of migrated cells at 25 nM incubated for 24 hrs by crystal violet staining based inverted microscopic analysis (reference value: 100%); assay type: functional; set-up: scale not given: the % may be the effect or the level left
[12] = system: A549; assay: Antitumor activity against human A549 cells assessed as reduction in cell viability incubated for 72 hrs by CCK8 assay; assay type: functional, cell-based; conditions: A549, 72 h
[13] = system: MCF7; assay: Inhibition of colony formation in human MCF7 cells at 3.125 to 50 nM by crystal violet staining based assay; assay type: functional, cell-based; conditions: dose 3.125-50 nM, time 0-72 hrs
[14] = system: SK-OV-3; assay: Inhibition of cell migration in human SK-OV-3 cells assessed as reduction in wound closure at 6.25 nM incubated for 24 hrs by wound healing assay (reference value: 21.8 +/- 7.6%); assay type: functional; conditions: SK-OV-3, 24 h, values are per cent of control
[15] = Toxicity in female BALB/c nude mouse xenografted with human SK-OV-3 cells assessed as effect on body weight at 5 to 10 mg/kg, […] via tail vein once every 2 to 3 days; assay type: organism-based; conditions: in vivo, dose lower 5 mg/kg, time lower 2 day, dose upper 10 mg/kg, time upper 3 day
[16] = Toxicity in female BALB/c nude mouse xenografted with human SK-OV-3 cells assessed as animal death at 15 mg/kg, administered via tail vein for 5 days and measured daily; assay type: organism-based; conditions: in vivo, iv, 120 h, time 5 day
[17] = molecular target: Tubulin (Homo sapiens) (UniProt P68371+Q9H4B7+P0DPH7+P68366+Q13509+Q71U36+P04350+Q3ZCM7+P07437+P68363+Q9BQE3+Q6PEY2+Q13885+Q9BVA1+Q9BUF5); assay: Inhibition of tubulin polymerization (unknown origin) assessed as reduction in optical density at 340 nm; assay type: protein-complex assay; conditions: dose 5-20 µM
[18] = system: MCF7; assay: Inhibition of cell migration in human MCF7 cells assessed as area of migrated cells at 12.5 nM incubated for 24 hrs by crystal violet staining based inverted microscopic analysis (reference value: 18.5 +/- 0.3 mm^3); assay type: functional
[19] = system: SK-OV-3; assay: Antitumor activity against human SK-OV-3 cells xenografted xenografted in female BALB/c nude mouse assessed as decrease in Ki-67 expression level in tumor at 10 mg/kg, […] via tail vein once every 2 to 3 days by immunohistochemistry analysis; assay type: functional, organism-based; conditions: time 2-3 day
[20] = system: SK-OV-3; assay: Induction of apoptosis in human SK-OV-3 cells assessed as increase in apoptotic cells incubated for 48 hrs by IncuCyte live-cell imaging analysis; assay type: functional, cell-based; conditions: dose 2.5-40 nM
[21] = system: MCF7; assay: Antitumor activity against human MCF7 cells assessed as reduction in cell viability incubated for 72 hrs by CCK8 assay; assay type: functional, cell-based; conditions: MCF7, 72 h
[22] = system: MCF7; assay: Inhibition of cell migration in human MCF7 cells assessed as area of migrated cells at 3.125 nM incubated for 24 hrs by crystal violet staining based inverted microscopic analysis (reference value: 18.5 +/- 0.3 mm^3); assay type: functional
[23] = system: SK-OV-3; assay: Inhibition of cell migration in human SK-OV-3 cells assessed as ratio of migrated cells at 1.25 nM incubated for 24 hrs by Transwell assay (reference value: 100 %); assay type: functional; set-up: scale not given: the % may be the effect or the level left
[24] = Toxicity in female BALB/c nude mouse xenografted with human SK-OV-3 cells assessed as pathological changes in spleen at 5 to 10 mg/kg, […] via tail vein once every 2 to 3 days by H and E staining based analysis; assay type: organism-based; conditions: in vivo, dose lower 5 mg/kg, time lower 2 day, dose upper 10 mg/kg, time upper 3 day
[25] = system: MCF7; assay: Induction of apoptosis in human MCF7 cells assessed as increase in apoptotic cells at 6.25 to 100 nM incubated for 24 hrs by IncuCyte live-cell imaging analysis; assay type: functional, cell-based; conditions: dose 6.25-100 nM
[26] = system: SK-OV-3; assay: Induction of apoptosis in human SK-OV-3 cells assessed as increase in apoptotic cells at 2.5 to 40 nM by IncuCyte live-cell imaging analysis; assay type: functional, cell-based; conditions: dose 2.5-40 nM, time lower 24.0 hrs, time upper […]
[27] = system: MCF7; assay: Inhibition of cell migration in human MCF7 cells assessed as wound closure ratio at 1.25 nM incubated for 24 hrs by wound healing assay (reference value: 100%); assay type: functional; set-up: scale not given: the % may be the effect or the level left
[28] = Toxicity in female BALB/c nude mouse xenografted with human SK-OV-3 cells assessed as pathological changes in lung at 5 to 10 mg/kg, […] via tail vein once every 2 to 3 days by H and E staining based analysis; assay type: organism-based; conditions: in vivo, dose lower 5 mg/kg, time lower 2 day, dose upper 10 mg/kg, time upper 3 day
[29] = system: SK-OV-3; assay: Inhibition of cell migration in human SK-OV-3 cells assessed as area of migrated cells at 5 nM incubated for 24 hrs by crystal violet staining based inverted microscopic analysis (reference value: 30.1 +/- 1.3 mm^3); assay type: functional
[30] = system: SK-OV-3; assay: Inhibition of cell migration in human SK-OV-3 cells assessed as ratio of migrated cells at 2.5 nM incubated for 24 hrs by Transwell assay (reference value: 100 %); assay type: functional; set-up: scale not given: the % may be the effect or the level left
[31] = system: SK-OV-3; assay: Induction of apoptosis in human SK-OV-3 cells assessed as upregulation of cleaved-PARP expression at 25 to 50 nM incubated for 24 hrs by Western blotting analysis; assay type: functional, cell-based; conditions: dose 25-50 nM
[32] = system: SK-OV-3; assay: Inhibition of cell migration in human SK-OV-3 cells assessed as reduction in wound closure at 50 nM incubated for 24 hrs by wound healing assay (reference value: 21.8 +/- 7.6%); assay type: functional; conditions: SK-OV-3, 24 h, values are per cent of control
[33] = system: MCF7; assay: Induction of apoptosis in human MCF7 cells assessed as upregulation of cleaved-caspase-3 expression incubated for 24 hrs by Western blotting analysis; assay type: functional, cell-based

## CNc1nc(N2CCCc3cc(OC)ccc32)c2cc(F)ccc2n1
[1]
  Activity: 60.4%
[2]
  Activity: Dose-dependent-effect
[3]
  Activity: 88.6%
[4]
  Activity: 64.5%
[5]
  Activity: 47%
[6]
  Activity: inactive
[7]
  Activity: 72.4%
[8]
  inhibition: Dose-dependent-effect
[9]
  IC50: 1 nM
[10]
  Activity: 51.4%
[11]
  Activity: 13.2%
[12]
  IC50: 2.7 nM
[13]
  inhibition: Time-dependent-effect
[14]
  response, % of control at 0.00625 µM: 18.4%
[15]
  Activity: Non-toxic
[16]
  Activity: Non-toxic
[17]
  inhibition: Dose-dependent-effect
[18]
  Activity: 11.2 mm3
[19]
  Activity: Active
[20]
  Activity: Dose-dependent-effect
[21]
  IC50: 0.4 nM
[22]
  Activity: 17.5 mm3
[23]
  Activity: 72.3%
[24]
  Activity: Non-toxic
[25]
  Activity: Active
[26]
  Activity: Time-dependent-effect
[27]
  Activity: 105.5%
[28]
  Activity: Non-toxic
[29]
  Activity: 14.7 mm3
[30]
  Activity: 62.9%
[31]
  Activity: Active
[32]
  response, % of control at 0.05 µM: 4.9%
[33]
  Activity: Dose-dependent-effect
